Reference: the supplement of paper PMC10307832

Key:
Experiment in all cases: relative viability (nuclei count vs DMSO), 5 days (fraction); higher = more cells survive
[1] = compound: C1COCCN1C2=NC(=NC3=C2OC4=C3C=CC=N4)C5=CC(=CC=C5)NC(=O)C6=CN=C(C=C6)N + CC(=O)Nc1cccc(-n2c(=O)n(C3CC3)c(=O)c3c(Nc4ccc(I)cc4F)n(C)c(=O)c(C)c32)c1 [Trametinib] (partner 0.02 µM)
Method in brief: (§1)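 Lung cancer cell lines were pin-tool dosed in 1536-well plates on the day after seeding, with either a lone drug or a fixed anchor-drug dose plus five library-drug doses (not always all listed) in √10 steps. Nuclei were counted on 4× images after 5 days. Relative viability is the ratio of treated-well to vehicle-well nuclei counts, with each value a median of duplicate plates.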

[2] = compound: C1COCCN1C2=NC(=NC3=C2OC4=C3C=CC=N4)C5=CC(=CC=C5)NC(=O)C6=CN=C(C=C6)N + C[C@@H](Oc1cc(-c2cnn(C3CCNCC3)c2)cnc1N)c1c(Cl)ccc(F)c1Cl [Crizotinib] (partner 1 µM)
Method in brief: as §1

SGI-1776 + Pictilisib = compound: CN1CCC(CNc2ccc3ncc(-c4cccc(OC(F)(F)F)c4)n3n2)CC1 [SGI-1776] + CS(=O)(=O)N1CCN(Cc2cc3nc(-c4cccc5[nH]ncc45)nc(N4CCOCC4)c3s2)CC1 [Pictilisib] (partner 1 µM)
Method in brief: as §1

SGI-1776 + Olaparib = compound: CN1CCC(CNc2ccc3ncc(-c4cccc(OC(F)(F)F)c4)n3n2)CC1 [SGI-1776] + O=C(c1cc(Cc2n[nH]c(=O)c3ccccc23)ccc1F)N1CCN(C(=O)C2CC2)CC1 [Olaparib] (partner 8 µM)
Method in brief: as §1

Row | Cell Line | relative viability ([1]; first compound 0.02 µM) | relative viability ([1]; first compound 0.06325 µM) | relative viability ([1]; first compound 0.2 µM) | relative viability ([1]; first compound 0.6325 µM) | relative viability ([1]; first compound 2 µM) | relative viability ([2]; first compound 0.02 µM) | relative viability ([2]; first compound 0.06325 µM) | relative viability ([2]; first compound 0.2 µM) | relative viability ([2]; first compound 0.6325 µM) | relative viability ([2]; first compound 2 µM) | relative viability (SGI-1776 + Pictilisib; first compound 0.08 µM) | relative viability (SGI-1776 + Pictilisib; first compound 0.8 µM) | relative viability (SGI-1776 + Pictilisib; first compound 2.53 µM) | relative viability (SGI-1776 + Pictilisib; first compound 8 µM) | relative viability (SGI-1776 + Olaparib; first compound 0.08 µM) | relative viability (SGI-1776 + Olaparib; first compound 0.8 µM) | relative viability (SGI-1776 + Olaparib; first compound 2.53 µM) | relative viability (SGI-1776 + Olaparib; first compound 8 µM)
1 | SW 1573 | 0.744 | 0.573 | 0.476 | 0.534 | 0.476 | 0.89 | 0.812 | 0.721 | 0.743 | 0.659 | 0.452 | 0.449 | 0.424 | 0.393 | 0.381 | 0.428 | 0.475 | 0.297
2 | LU99A | 0.592 | 0.576 | 0.547 | 0.452 | 0.389 | 0.602 | 0.65 | 0.477 | 0.49 | 0.327 | 0.29 | 0.339 | 0.309 | 0.28 | 0.304 | 0.312 | 0.305 | 0.238
3 | NCI-H1299 | – | – | – | – | – | 0.942 | 0.95 | 0.937 | 0.958 | 0.669 | 0.821 | 0.832 | 0.596 | 0.505 | 1.01 | 0.962 | 1.05 | 0.897
4 | NCI-H1355 | 0.452 | 0.427 | 0.395 | 0.367 | 0.372 | 0.969 | 1.21 | 1.07 | 1.02 | 0.936 | 0.488 | 0.494 | 0.439 | 0.364 | 0.749 | 0.695 | 0.78 | 0.687
5 | HARA | 0.728 | 0.738 | 0.848 | 0.433 | 0.601 | 1.01 | 1.23 | 1.06 | 0.978 | 0.662 | 0.445 | 0.373 | 0.306 | 0.243 | 1.09 | 0.986 | 0.667 | 0.57
6 | LXF-289 | 0.676 | 0.769 | 0.671 | 0.67 | 0.462 | 0.859 | 0.903 | 0.821 | 0.858 | 0.604 | 0.699 | 0.837 | 0.806 | 0.67 | 0.966 | 1.12 | 1.1 | 1.03
7 | 201T | 0.697 | 0.713 | 0.705 | 0.686 | 0.563 | 1.02 | 1.05 | 1.03 | 1.01 | 0.736 | 0.7 | 0.718 | 0.687 | 0.6 | 0.856 | 0.893 | 0.854 | 0.9
8 | HCC-827 | 0.488 | 0.573 | 0.459 | 0.483 | 0.408 | 0.905 | 0.97 | 0.91 | 0.985 | 0.93 | 1.02 | 1.21 | 1.09 | 0.877 | 0.694 | 0.615 | 0.739 | 0.658
9 | NCI-H1703 | – | – | – | – | – | 0.357 | 0.731 | 0.506 | 0.401 | 0.416 | 0.242 | 0.22 | 0.251 | 0.181 | 0.338 | 0.394 | 0.387 | 0.12
10 | NCI-H1975 | 0.315 | 0.362 | 0.307 | 0.348 | 0.31 | 0.993 | 1.15 | 0.929 | 1.07 | 0.418 | 0.382 | 0.311 | 0.246 | 0.203 | 0.877 | 0.791 | 0.73 | 0.638
11 | NCI-H2023 | 0.509 | 0.717 | 0.564 | 0.416 | 0.246 | 0.669 | 0.711 | 0.49 | 0.56 | 0.257 | 0.23 | 0.23 | 0.202 | 0.147 | 0.499 | 0.516 | 0.51 | 0.347
12 | ChaGo-K-1 | 0.906 | 0.987 | 0.941 | 0.804 | 0.602 | 1.2 | 1.14 | 1.01 | 1.26 | 0.717 | 0.699 | 0.844 | 0.49 | 0.415 | 0.393 | 0.487 | 0.405 | 0.45
13 | COR-L 105 | 0.421 | 0.411 | 0.415 | 0.403 | 0.465 | 0.792 | 0.722 | 0.567 | 0.752 | 0.481 | 0.409 | 0.389 | 0.342 | 0.308 | 0.775 | 0.726 | 0.77 | 0.631
14 | NCI-H2170 | 0.936 | 0.987 | 0.84 | 0.919 | 0.399 | 1.31 | 1.37 | 1.25 | 1.12 | 0.668 | 0.297 | 0.281 | 0.284 | 0.238 | 0.638 | 0.686 | 0.651 | 0.614
15 | A549 | – | – | – | – | – | 1 | 0.903 | 0.66 | 0.764 | 0.302 | 0.566 | 0.513 | 0.392 | 0.267 | 0.39 | 0.395 | 0.389 | 0.312
16 | NCI-H1993 | 0.521 | 0.583 | 0.571 | 0.421 | 0.526 | 0.821 | 0.856 | 0.805 | 0.899 | 0.789 | 0.711 | 0.665 | 0.839 | 0.703 | 0.989 | 0.943 | 1.01 | 0.955
17 | Calu-6 | – | – | – | – | – | 1.1 | 0.876 | 0.758 | 0.822 | 0.454 | 0.974 | 0.911 | 0.808 | 0.482 | 0.61 | 0.559 | 0.642 | 0.474
18 | NCI-H1648 | 0.54 | 0.534 | 0.456 | 0.405 | 0.482 | – | – | – | – | – | – | – | – | – | 0.648 | 0.763 | 0.761 | 1.21
19 | NCI-H322M | 0.449 | 0.519 | 0.521 | 0.412 | 0.475 | 0.854 | 0.991 | 0.879 | 0.934 | 0.657 | 0.571 | 0.483 | 0.473 | 0.445 | 0.871 | 0.772 | 0.812 | 0.697
